From the supplement of paper PMC6045584

Legend:
Experiment in all cases: area under dose-response curve of surviving fraction (unscaled, Aref=0) (surviving fraction x log10(nM)); higher = more resistant
Conditions in all cases: exposure time: 5 days; dose range 0.5-1000 nM
NUTLIN3 = compound: COc1ccc(C2=N[C@@H](c3ccc(Cl)cc3)[C@@H](c3ccc(Cl)cc3)N2C(=O)N2CCNC(=O)C2)c(OC(C)C)c1 [NUTLIN3]
In short: (§1)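 Surviving fractions were fitted by 3-parameter logistic regression in the drc R package to give dose-response survival curves. They came from tumour cell lines treated for five days with eight inhibitor concentrations from 0.5 to 1000 nM and read by CellTiter-Glo luminescence against DMSO-only wells. The area under the curve is the unscaled activity area. It was calculated over log10 dose with Aref = 0.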

[1] = compound: CCN(CC)CCCCNc1ncc2cc(-c3cc(OC)cc(OC)c3)c(NC(=O)NC(C)(C)C)nc2n1
In short: as §1

2-METHOXYESTRADIOL = compound: COc1cc2c(cc1O)CC[C@@H]1[C@@H]2CC[C@]2(C)[C@@H](O)CC[C@@H]12 [2-METHOXYESTRADIOL]
In short: as §1

17-AAG = compound: C=CCNC1=C2C[C@@H](C)C[C@H](OC)[C@H](O)[C@@H](C)/C=C(\C)[C@H](OC(N)=O)[C@@H](OC)/C=C\C=C(/C)C(=O)NC(=CC1=O)C2=O [17-AAG]
In short: as §1

FLAVOPIRIDOL = compound: CN1CC[C@H](c2c(O)cc(O)c3c(=O)cc(-c4ccccc4Cl)oc23)[C@H](O)C1 [FLAVOPIRIDOL]
In short: as §1

ABT-737 = compound: CN(C)CC[C@H](CSc1ccccc1)Nc1ccc(S(=O)(=O)NC(=O)c2ccc(N3CCN(Cc4ccccc4-c4ccc(Cl)cc4)CC3)cc2)cc1[N+](=O)[O-] [ABT-737]
In short: as §1

LAPATINIB = compound: CS(=O)(=O)CCNCc1ccc(-c2ccc3ncnc(Nc4ccc(OCc5cccc(F)c5)c(Cl)c4)c3c2)o1 [LAPATINIB]
In short: as §1

DOXORUBICIN = compound: COc1cccc2c1C(=O)c1c(O)c3c(c(O)c1C2=O)C[C@@](O)(C(=O)CO)C[C@@H]3O[C@H]1C[C@H](N)[C@H](O)[C@H](C)O1 [DOXORUBICIN]
In short: as §1

VISMODEGIB = compound: CS(=O)(=O)c1ccc(C(=O)Nc2ccc(Cl)c(-c3ccccn3)c2)c(Cl)c1 [VISMODEGIB]
In short: as §1

RESVERATROL = compound: Oc1ccc(/C=C/c2cc(O)cc(O)c2)cc1 [RESVERATROL]
In short: as §1

SALINOMYCIN = compound: CC[C@@H](C(=O)[C@@H](C)[C@@H](O)[C@H](C)[C@@H]1O[C@@H]([C@@H](CC)C(=O)O)CC[C@@H]1C)[C@H]1O[C@]2(C=C[C@@H](O)[C@]3(CC[C@@](C)([C@H]4CC[C@](O)(CC)[C@H](C)O4)O3)O2)[C@H](C)C[C@@H]1C [SALINOMYCIN]
In short: as §1

DECITABINE = compound: Nc1ncn([C@H]2C[C@H](O)[C@@H](CO)O2)c(=O)n1 [DECITABINE]
In short: as §1

FLUOROURACIL = compound: O=c1[nH]cc(F)c(=O)[nH]1 [FLUOROURACIL]
In short: as §1

| Test System | area under dose-response curve (NUTLIN3) | area under dose-response curve [1] | area under dose-response curve (2-METHOXYESTRADIOL) | area under dose-response curve (17-AAG) | area under dose-response curve (FLAVOPIRIDOL) | area under dose-response curve (ABT-737) | area under dose-response curve (LAPATINIB) | area under dose-response curve (DOXORUBICIN) | area under dose-response curve (VISMODEGIB) | area under dose-response curve (RESVERATROL) | area under dose-response curve (SALINOMYCIN) | area under dose-response curve (DECITABINE) | area under dose-response curve (FLUOROURACIL) |
| --- | --- | --- | --- | --- | --- | --- | --- | --- | --- | --- | --- | --- | --- |
| OSHN BONE | 3.52 | 3.35 | 3.21 | 2.3 | 2.31 | 3.58 | 3.55 | 1.98 | 3.27 | 3.6 | 2.81 | 3.71 | – |
| RDES SOFT TISSUE | 3.98 | 3.98 | – | 2.13 | 2.51 | 2.58 | 4.08 | 1.97 | – | 4.59 | 2.26 | 3.9 | 3.48 |
| S68 BREAST | 3.12 | 3.23 | 3.07 | 0.636 | 2.32 | 3.67 | – | 1.32 | 3.02 | 3.12 | 2.67 | 2.84 | 2.83 |
| SAOS2 BONE | 3.66 | 3.79 | – | 1.66 | 2.19 | 3.87 | 3.95 | 1.85 | 3.12 | 4.04 | 3.15 | 3.06 | 2.91 |
| SCC36 HEADNECK | 3.65 | – | – | 1.66 | 2.3 | 3.58 | 2.91 | 1.98 | 2.89 | 3.87 | 2.7 | 3.08 | 2.79 |
| SCC47 HEADNECK | 3.66 | 3.33 | 3.24 | 2.29 | 2.12 | 3.89 | – | 2.27 | 3.19 | 3.79 | 3.07 | – | 3.44 |
| SG27 HEADNECK | – | 3.03 | 3.61 | 2.94 | 2.29 | – | – | 2.61 | 3.18 | 3.59 | 2.95 | 3.79 | 3.48 |
| SG28 HEADNECK | 3.29 | 3.28 | – | 1.95 | – | – | – | 2.4 | 3 | – | 2.71 | – | – |
| SG31 HEADNECK | 3.23 | 3.09 | 3.42 | 1.94 | 2.03 | 3.88 | – | 2.02 | 3.05 | – | 2.81 | – | – |
| SG32 HEADNECK | 3.75 | 3.36 | 2.92 | 1.96 | 1.72 | 3.48 | 3.6 | 1.68 | – | 3.38 | 2.42 | – | – |
| SG43 HEADNECK | 2.8 | 3.03 | 2.84 | 1.77 | 2.35 | 2.77 | 2.24 | 1.71 | – | 2.91 | 3.03 | – | 3.27 |
| SIHA CERVIX | 3.54 | 3.08 | 3.15 | 2.23 | 2.19 | 3.73 | 3.53 | 2.16 | – | 3.61 | 2.93 | 3.46 | – |
| SJSA1 BONE | 3.18 | 3.48 | 5.58 | 1.72 | 2.96 | 5.63 | 5.27 | 1.9 | 3.35 | 5.61 | 2.91 | 4.52 | – |
| SNU475 LIVER | 3.32 | 3.01 | 3.26 | 1.66 | 2.33 | 3.39 | – | 2.22 | 3.06 | 3.3 | 2.58 | 3.4 | 3.03 |
| SUM44 BREAST | 3.26 | 3.27 | – | 2.02 | 2.36 | – | 3.72 | 2.59 | 3.11 | 3.94 | 3.22 | 3.87 | 3.15 |
| SUM149.B1*.S BREAST | 3.61 | – | 3.49 | 1.93 | 2.37 | 3.79 | – | 2 | – | 3.7 | 2.9 | – | – |
| SUM159 BREAST | 3.27 | 3.75 | 3.24 | 1.72 | 2.38 | – | 3.55 | 1.84 | – | 3.53 | 2.31 | 3.48 | 3.29 |
| U2OS BONE | 3.28 | 3 | 3.08 | 2.13 | 2.2 | 3.49 | – | 1.98 | 3.48 | 3.48 | 3.16 | 3.01 | 3.18 |
| VCAP PROSTATE | 3.78 | 3.48 | 3.12 | 2.25 | 2.26 | 3.49 | 3.07 | 2.3 | 3.36 | 3.11 | 2.89 | 3.68 | – |
| VP229 BREAST | 3.5 | 3.78 | 3.43 | 1.93 | 2.08 | 3.82 | 3.02 | 2.61 | 3.65 | – | 2.4 | – | 2.98 |
| YAMATO SYNOVIAL | 4.58 | 3.96 | 3.05 | 2.65 | 2.38 | 4.34 | 4.08 | 2.03 | – | – | 2.25 | – | 3 |
| ZR751 BREAST | – | 3.3 | – | 1.74 | 2.38 | 3.53 | 2.92 | 2.06 | 2.87 | 3.31 | 2.67 | – | – |
